According to the supplement of paper PMC10307832:

How the values were obtained:
Assay in all cases: relative viability (nuclei count vs DMSO), 5 days (fraction); higher = more cells survive
[1] = compound: C1COCCN1C2=NC(=NC3=C2OC4=C3C=CC=N4)C5=CC(=CC=C5)NC(=O)C6=CN=C(C=C6)N + CC(C)C[C@H](NC(=O)[C@H](Cc1ccccc1)NC(=O)c1cnccn1)B(O)O [Bortezomib] (partner 0.002 µM)
Method in brief: (§1)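 A single step with final 0.05% Triton X-100, 1% formaldehyde and 1 ug/ml Hoechst fixed the cells and stained nuclei 5 days after treatment. Lung cancer cell lines in 1536-well plates had been treated by pin tool the day after seeding with one drug alone or a fixed anchor-drug dose plus five library-drug doses (not always all listed) in √10 steps, and nuclei were counted on 4× images. Relative viability is the ratio of nuclei in treated wells to nuclei in vehicle wells, taken as the median of duplicate plates.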

[2] = compound: C1COCCN1C2=NC(=NC3=C2OC4=C3C=CC=N4)C5=CC(=CC=C5)NC(=O)C6=CN=C(C=C6)N + CCNC(=O)c1noc(-c2cc(C(C)C)c(O)cc2O)c1-c1ccc(CN2CCOCC2)cc1 [Luminespib] (partner 0.01 µM)
Method in brief: as §1

[3] = compound: C1COCCN1C2=NC(=NC3=C2OC4=C3C=CC=N4)C5=CC(=CC=C5)NC(=O)C6=CN=C(C=C6)N + CS(=O)(=O)N1CCN(Cc2cc3nc(-c4cccc5[nH]ncc45)nc(N4CCOCC4)c3s2)CC1 [Pictilisib] (partner 1 µM)
Method in brief: as §1

Entinostat + Trametinib = compound: Nc1ccccc1NC(=O)c1ccc(CNC(=O)OCc2cccnc2)cc1 [Entinostat] + CC(=O)Nc1cccc(-n2c(=O)n(C3CC3)c(=O)c3c(Nc4ccc(I)cc4F)n(C)c(=O)c(C)c32)c1 [Trametinib] (partner 0.02 µM)
Method in brief: as §1

Cell Line | relative viability ([1]; first compound 0.02 µM) | relative viability ([1]; first compound 0.06325 µM) | relative viability ([1]; first compound 0.2 µM) | relative viability ([1]; first compound 0.6325 µM) | relative viability ([1]; first compound 2 µM) | relative viability ([2]; first compound 0.02 µM) | relative viability ([2]; first compound 0.06325 µM) | relative viability ([2]; first compound 0.2 µM) | relative viability ([2]; first compound 0.6325 µM) | relative viability ([2]; first compound 2 µM) | relative viability ([3]; first compound 0.02 µM) | relative viability ([3]; first compound 0.06325 µM) | relative viability ([3]; first compound 0.2 µM) | relative viability ([3]; first compound 0.6325 µM) | relative viability ([3]; first compound 2 µM) | relative viability (Entinostat + Trametinib; first compound 0.02 µM) | relative viability (Entinostat + Trametinib; first compound 0.06325 µM) | relative viability (Entinostat + Trametinib; first compound 0.2 µM) | relative viability (Entinostat + Trametinib; first compound 0.6325 µM) | relative viability (Entinostat + Trametinib; first compound 2 µM)
NCI-H2087 | 0.802 | 0.889 | 0.854 | 0.862 | 0.361 | 0.146 | 0.16 | 0.137 | 0.204 | 0.142 | 0.881 | 0.848 | 0.876 | 0.807 | 0.642 | 0.189 | 0.193 | 0.169 | 0.136 | 0.141
NCI-H520 | 0.637 | 0.641 | 0.465 | 0.529 | 0.298 | 0.224 | 0.21 | 0.244 | 0.233 | 0.201 | 0.302 | 0.327 | 0.274 | 0.293 | 0.179 | 0.698 | 0.906 | 0.604 | 0.698 | 0.355
Calu-6 | 1.1 | 1.18 | 0.919 | 0.957 | 0.806 | – | – | – | – | – | 1.03 | 0.932 | 0.87 | 0.888 | 0.472 | – | – | – | – | –
SK-LU-1 | 1.31 | 0.998 | 1.02 | 1.14 | 0.63 | 0.202 | 0.206 | 0.218 | 0.214 | 0.181 | 0.553 | 0.671 | 0.634 | 0.536 | 0.467 | 0.445 | 0.617 | 0.463 | 0.361 | 0.402
LCLC-97TM1 | 0.704 | 0.635 | 0.499 | 0.802 | 0.233 | 0.787 | 0.908 | 0.739 | 0.826 | 0.566 | – | 0.173 | 0.217 | 0.235 | 0.184 | 0.233 | 0.207 | 0.214 | 0.152 | 0.139
HCC-15 | 1.03 | 1.04 | 0.994 | 1.05 | 0.677 | 0.33 | 0.251 | 0.292 | 0.234 | 0.242 | 0.735 | 0.76 | 0.713 | 0.742 | 0.527 | 0.392 | 0.323 | 0.245 | 0.221 | 0.161
H3255 | 0.622 | 0.718 | 0.687 | 0.805 | 0.611 | 0.79 | 0.851 | 0.689 | 1.03 | 0.9 | 0.417 | 0.495 | 0.458 | 0.505 | 0.432 | 0.681 | 0.57 | 0.528 | 0.402 | 0.295
NCI-H1915 | 1.07 | 1.08 | 1.03 | 1.02 | 0.423 | 0.95 | 0.85 | 0.829 | 0.432 | 0.267 | 0.924 | 0.96 | 0.927 | 0.898 | 0.845 | 0.314 | 0.311 | 0.289 | 0.246 | 0.229
NCI-H522 | – | – | – | – | – | 0.993 | 1.23 | 1.13 | 0.986 | 0.719 | – | – | – | – | – | 0.812 | 0.966 | 0.799 | 0.844 | 0.841
LK-2 | – | – | – | – | – | 0.193 | 0.196 | 0.201 | 0.169 | 0.175 | 0.64 | 0.444 | 0.621 | 0.477 | 0.612 | 0.778 | 0.686 | 0.652 | 0.447 | 0.349
HCC-78 | 0.394 | 0.61 | 0.555 | 0.444 | 0.497 | – | – | – | – | – | 0.179 | 0.211 | 0.289 | 0.16 | 0.0668 | 0.706 | 0.662 | 0.505 | 0.377 | 0.253
NCI-H358 | – | – | – | – | – | 0.287 | 0.254 | 0.353 | 0.426 | 0.193 | 0.287 | 0.302 | 0.288 | 0.328 | 0.296 | 0.175 | 0.164 | 0.135 | 0.117 | 0.127
SK-MES-1 | – | – | – | – | – | 0.736 | 0.907 | 0.816 | 0.657 | 0.494 | 0.31 | 0.407 | 0.369 | 0.353 | 0.317 | 0.553 | 0.693 | 0.865 | 0.83 | 0.512
NCI-H1648 | – | – | – | – | – | – | – | – | – | – | – | – | – | – | – | 0.507 | 0.682 | 0.436 | 0.653 | 0.472
NCI-H1703 | 0.229 | 0.278 | 0.249 | 0.267 | 0.236 | – | – | – | – | – | 0.23 | 0.255 | 0.239 | 0.251 | 0.232 | – | – | – | – | –
EBC-1 | 0.541 | 0.521 | 0.431 | 0.455 | 0.417 | – | – | – | – | – | 0.409 | 0.432 | 0.307 | 0.295 | 0.293 | – | – | – | – | –
NCI-H1395 | – | – | – | – | – | 0.666 | 0.555 | 0.789 | 0.658 | 0.482 | 0.699 | 0.604 | 0.569 | 0.587 | 0.57 | 1.08 | 1.09 | 0.977 | 0.79 | 0.699
NCI-H1563 | 0.883 | 0.81 | 0.84 | 0.665 | 0.589 | 0.492 | 0.516 | 0.542 | 0.474 | 0.48 | 0.632 | 0.618 | 0.622 | 0.626 | 0.604 | – | – | – | – | –
ABC-1 | 0.311 | 0.315 | 0.288 | 0.298 | 0.302 | 0.383 | 1.28 | 0.473 | 0.739 | 0.475 | 0.711 | 0.717 | 0.773 | 0.768 | 0.609 | – | – | – | – | –
NCI-H2170 | – | – | – | – | – | 0.579 | 0.893 | 0.723 | 0.606 | 0.584 | 0.328 | 0.316 | 0.299 | 0.299 | 0.304 | 0.972 | 0.888 | 0.752 | 0.579 | 0.402
NCI-H1793 | – | – | – | – | – | 0.16 | 0.192 | 0.168 | 0.165 | 0.158 | 0.312 | 0.279 | 0.398 | 0.408 | 0.361 | 0.465 | 0.387 | 0.31 | 0.304 | 0.292
